Assay results: patent publication US20240408093A1, “HETEROBIFUNCTIONAL COMPOUNDS AND THEIR USE IN TREATING DISEASE” (HALDA THERAPEUTICS OPCO, INC., priority 2022, published 2024)

Tests used:
EGFR T790M L858R = target: T1, EGFR T790M L858R (Homo sapiens, UniProt P00533, L858R/T790M); assay: Release of effector protein ligand from heterobifunctional compounds, EGFR T790M L858R; type: biochemical; conditions: detected A1-3
T1 construct: EGFR T790M L858R (amino acids 696-1022)
Procedure: Exemplary heterobifunctional compounds were evaluated for the ability to release an effector protein ligand in the presence of KRAS G12C, BTK, or EGFR T790M L858R target proteins.
Samples for mass spectrometry for KRAS G12C, BTK, and EGFR T790M L858R were prepared as described above for the intact mass spectrometry target engagement experiment, respectively, except rather than flash-freezing, 20 μL of sample was quenched with 50 μL of 100% acetonitrile. As well, a buffer-only control was used to detect latent release of effector protein ligand analyte. Internal standard (IS) solution consisted of 200 ng/mL propranolol and 50 ng/mL diclofenac in methanol:water 1:1 (v/v). A 4-point calibration curve (calibration standard (CS)) consisting of each analyte was made at final concentrations of 3 nM, 30 nM, 300 nM, and 3000 nM. Unknown samples were diluted such that the unknown analyte concentration was in the linear range of the calibration curve.
Samples for all proteins were prepared and analyzed from the following:
Samples were further analyzed with AB Sciex Triple Quad 5500 system coupled with Shimadzu Prominence HPLC.

[1] = target: T2, full-length BTK (amino acids 1-659) (Homo sapiens, UniProt Q06187); assay: KdELECT binding assay, BTK
T2 construct: full-length BTK (amino acids 1-659); host or cells: mammalian cells (HEK-293)
T2 sequence (Q06187 whole entry, the tested form may be a part): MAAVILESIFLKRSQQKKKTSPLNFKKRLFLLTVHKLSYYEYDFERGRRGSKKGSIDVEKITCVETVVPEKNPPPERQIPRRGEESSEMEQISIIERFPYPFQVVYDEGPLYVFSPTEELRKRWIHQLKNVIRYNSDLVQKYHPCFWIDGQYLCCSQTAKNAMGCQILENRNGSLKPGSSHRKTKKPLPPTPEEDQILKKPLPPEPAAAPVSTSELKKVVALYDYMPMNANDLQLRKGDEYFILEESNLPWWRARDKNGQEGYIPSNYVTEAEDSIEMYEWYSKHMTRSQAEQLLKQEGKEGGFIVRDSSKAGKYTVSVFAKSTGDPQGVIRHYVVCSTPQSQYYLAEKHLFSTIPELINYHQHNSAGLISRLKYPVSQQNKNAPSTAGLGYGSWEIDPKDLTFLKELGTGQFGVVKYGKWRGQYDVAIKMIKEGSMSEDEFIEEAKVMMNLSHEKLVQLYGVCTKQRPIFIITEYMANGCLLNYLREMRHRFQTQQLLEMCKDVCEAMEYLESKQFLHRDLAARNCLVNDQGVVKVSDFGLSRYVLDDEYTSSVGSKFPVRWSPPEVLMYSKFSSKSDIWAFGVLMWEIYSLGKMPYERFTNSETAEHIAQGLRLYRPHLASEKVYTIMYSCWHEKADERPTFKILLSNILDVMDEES
Procedure: Exemplary compounds were tested for ability to bind to full-length BTK (amino acids 1-659; Accession Number NP_000052.1) expressed from mammalian cells. Compounds were tested using the KdELECT assay.
(§1) Kinase-tagged T7 phage strains were prepared in an E. coli host derived from the BL21 strain. E. coli were grown to log-phase and infected with T7 phage and incubated with shaking at 32° C. until lysis. The lysates were centrifuged and filtered to remove cell debris. The remaining kinases were produced in HEK-293 cells and subsequently tagged with DNA for qPCR detection. Streptavidin-coated magnetic beads were treated with biotinylated small molecule ligands for 30 minutes at room temperature to generate affinity resins for kinase assays. The liganded beads were blocked with excess biotin and washed with blocking buffer (SeaBlock (Pierce), 1% BSA, 0.05% Tween 20, 1 mM DTT) to remove unbound ligand and to reduce non-specific binding. Binding reactions were assembled by combining kinases, liganded affinity beads, and test compounds in 1× binding buffer (20% SeaBlock, 0.17× PBS, 0.05% Tween 20, 6 mM DTT). Test compounds were prepared as 111× stocks in 100% DMSO. Kd values were determined using an 11-point 3-fold compound dilution series with three DMSO control points. All compounds for Kd measurements are distributed by acoustic transfer (non-contact dispensing) in 100% DMSO. The compounds were then diluted directly into the assays such that the final concentration of DMSO was 0.9%. All reactions performed in polypropylene 384-well plate. Each was a final volume of 0.02 mL. The assay plates were incubated at room temperature with shaking for 1 hour and the affinity beads were washed with wash buffer (1× PBS, 0.05% Tween 20). The beads were then re-suspended in elution buffer (1× PBS, 0.05% Tween 20, 0.5 μM nonbiotinylated affinity ligand) and incubated at room temperature with shaking for 30 minutes. The kinase concentration in the eluates was measured by qPCR.

GSPT1 = target: T3, GSPT1 (Homo sapiens, UniProt P15170+Q96SW2); assay: GSPT1 HiBiT degradation assay; type: cell-based; conditions: HEK293 LgBiT GSPT1 HiBiT cells, 6 hours
T3 construct: host or cells: HEK293 LgBiT / GSPT1 HiBiT CRISPR knock-in
T3 sequence (P15170 whole entry): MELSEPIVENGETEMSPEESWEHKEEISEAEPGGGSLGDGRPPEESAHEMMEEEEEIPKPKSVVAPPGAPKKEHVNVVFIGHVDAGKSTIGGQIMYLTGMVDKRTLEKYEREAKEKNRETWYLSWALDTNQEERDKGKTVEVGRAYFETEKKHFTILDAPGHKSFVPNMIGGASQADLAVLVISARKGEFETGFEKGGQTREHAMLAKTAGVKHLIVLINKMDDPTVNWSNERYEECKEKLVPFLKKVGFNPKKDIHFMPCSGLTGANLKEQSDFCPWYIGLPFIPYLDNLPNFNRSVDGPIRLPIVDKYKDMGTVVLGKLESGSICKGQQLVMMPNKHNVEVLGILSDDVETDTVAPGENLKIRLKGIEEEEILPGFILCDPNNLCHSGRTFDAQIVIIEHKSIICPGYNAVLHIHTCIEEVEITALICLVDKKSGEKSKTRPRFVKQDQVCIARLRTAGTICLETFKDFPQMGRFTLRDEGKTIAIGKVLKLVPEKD
T3 sequence (Q96SW2 whole entry): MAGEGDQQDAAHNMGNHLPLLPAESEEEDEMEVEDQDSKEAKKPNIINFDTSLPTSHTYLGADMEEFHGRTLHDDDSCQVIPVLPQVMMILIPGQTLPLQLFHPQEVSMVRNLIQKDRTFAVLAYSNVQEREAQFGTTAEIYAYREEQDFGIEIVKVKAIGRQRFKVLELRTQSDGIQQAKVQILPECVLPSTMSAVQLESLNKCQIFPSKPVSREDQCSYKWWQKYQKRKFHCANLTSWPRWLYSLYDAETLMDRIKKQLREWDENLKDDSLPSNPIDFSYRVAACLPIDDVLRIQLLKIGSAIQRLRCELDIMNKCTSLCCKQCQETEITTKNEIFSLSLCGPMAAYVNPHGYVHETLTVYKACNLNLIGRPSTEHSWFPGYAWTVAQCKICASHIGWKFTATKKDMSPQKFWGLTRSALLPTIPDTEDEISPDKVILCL
T3 sequence (Q16531 whole entry partner): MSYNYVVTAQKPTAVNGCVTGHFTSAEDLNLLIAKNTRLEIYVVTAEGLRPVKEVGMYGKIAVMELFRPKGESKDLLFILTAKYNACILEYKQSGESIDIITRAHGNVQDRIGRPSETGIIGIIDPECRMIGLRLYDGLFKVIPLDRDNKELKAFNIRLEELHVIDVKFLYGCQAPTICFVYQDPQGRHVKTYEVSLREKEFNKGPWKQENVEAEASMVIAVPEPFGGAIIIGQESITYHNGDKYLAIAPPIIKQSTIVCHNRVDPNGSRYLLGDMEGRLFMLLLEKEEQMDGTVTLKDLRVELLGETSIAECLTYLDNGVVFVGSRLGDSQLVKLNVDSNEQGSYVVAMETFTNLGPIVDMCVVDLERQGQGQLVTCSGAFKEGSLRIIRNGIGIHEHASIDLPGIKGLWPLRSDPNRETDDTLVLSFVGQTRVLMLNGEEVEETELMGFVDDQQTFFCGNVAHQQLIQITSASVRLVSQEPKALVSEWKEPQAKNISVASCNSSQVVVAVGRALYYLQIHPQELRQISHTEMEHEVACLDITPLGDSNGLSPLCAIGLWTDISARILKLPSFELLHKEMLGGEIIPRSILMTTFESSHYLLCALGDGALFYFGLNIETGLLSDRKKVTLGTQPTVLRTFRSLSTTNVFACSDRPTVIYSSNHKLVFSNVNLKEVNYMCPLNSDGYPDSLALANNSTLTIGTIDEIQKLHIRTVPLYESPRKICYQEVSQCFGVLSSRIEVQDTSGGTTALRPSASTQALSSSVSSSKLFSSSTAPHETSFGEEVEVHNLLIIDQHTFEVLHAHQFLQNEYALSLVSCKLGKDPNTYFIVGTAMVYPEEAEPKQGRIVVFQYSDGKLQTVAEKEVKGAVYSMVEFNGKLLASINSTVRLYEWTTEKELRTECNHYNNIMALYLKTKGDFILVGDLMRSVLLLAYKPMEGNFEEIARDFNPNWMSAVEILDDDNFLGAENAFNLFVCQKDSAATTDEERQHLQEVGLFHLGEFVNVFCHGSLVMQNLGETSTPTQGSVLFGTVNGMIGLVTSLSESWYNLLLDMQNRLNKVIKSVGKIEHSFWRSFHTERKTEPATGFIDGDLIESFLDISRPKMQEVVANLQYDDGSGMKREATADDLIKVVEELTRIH
In short: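 HEK293 CRISPR knock-in cells expressing LgBiT and GSPT1-HiBiT were seeded at 1000 cells/well and, after 18-24 h, treated with titrated compound plus endurazine (0.5× final) at 37 °C. Luminescence read after 6 h; loss of signal reflects GSPT1 degradation, giving DC50.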

[2] = system: HEK293 cells (ATCC CRL-1573); assay: Cellular growth inhibition assay, HEK293 cells (Example 16); type: cell-based; conditions: Homo sapiens, 72 hours, CellTiter-Glo 2.0
HeLa cells (ATCC CCL-2) = assay: Cellular growth inhibition assay, HeLa cells (Example 16); type: cell-based; conditions: Homo sapiens, 72 hours, CellTiter-Glo 2.0
[3] = target: T4, EGFR WT (amino acids 669-1011) (Homo sapiens, UniProt P00533); assay: KdELECT binding assay, EGFR WT
T4 construct: purchased Eurofins Discovery (KdELECT); host or cells: bacteria (E. coli BL21-derived, T7 phage)
Procedure: (§2) Exemplary compounds were tested for ability to bind to EGFR WT (amino acids 669-1011, Accession Number NP_005219.2) or EGFR T790M, L858R (amino acids 669-1011 Accession Number NP_005219.2) expressed from bacteria or mammalian cells, respectively. Compounds were tested using the KdELECT assay at Eurofins Discovery.
as §1, with “in 1x” for “in 1×”

[4] = target: T5, EGFR T790M, L858R (amino acids 669-1011) (Homo sapiens, UniProt P00533, L858R/T790M); assay: KdELECT binding assay, EGFR T790M, L858R
T5 construct: purchased Eurofins Discovery (KdELECT); host or cells: mammalian cells (HEK-293)
Procedure: as §2
as §1, with “in 1x” for “in 1×”

CCNK = target: T6, CCNK (Homo sapiens, UniProt O75909+Q16531+Q9NYV4); assay: CCNK HiBiT degradation assay; type: cell-based; conditions: HEK293 LgBiT/CCNK HiBiT cells, 6 hours
T6 construct: expressed in transfected cells; host or cells: HEK293 LgBiT cells (Promega), lentiviral transduction, puromycin selection
T6 sequence (O75909 whole entry, species assumed): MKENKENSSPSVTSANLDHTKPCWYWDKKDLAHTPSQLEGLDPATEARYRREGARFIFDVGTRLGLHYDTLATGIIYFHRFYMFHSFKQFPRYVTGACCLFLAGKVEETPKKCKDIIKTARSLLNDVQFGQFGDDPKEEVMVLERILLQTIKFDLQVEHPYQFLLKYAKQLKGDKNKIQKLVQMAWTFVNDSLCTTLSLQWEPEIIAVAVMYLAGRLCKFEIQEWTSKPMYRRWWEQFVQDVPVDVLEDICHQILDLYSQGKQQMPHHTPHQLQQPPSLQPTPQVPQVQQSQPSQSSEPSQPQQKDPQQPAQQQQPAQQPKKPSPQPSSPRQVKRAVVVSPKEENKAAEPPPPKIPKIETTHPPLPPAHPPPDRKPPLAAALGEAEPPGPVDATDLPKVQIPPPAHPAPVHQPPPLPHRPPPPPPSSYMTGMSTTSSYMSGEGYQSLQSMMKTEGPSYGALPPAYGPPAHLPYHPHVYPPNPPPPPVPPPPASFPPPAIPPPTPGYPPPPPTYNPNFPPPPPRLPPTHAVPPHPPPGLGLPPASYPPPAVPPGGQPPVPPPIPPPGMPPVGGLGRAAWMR
T6 sequence (Q9NYV4 whole entry, species assumed): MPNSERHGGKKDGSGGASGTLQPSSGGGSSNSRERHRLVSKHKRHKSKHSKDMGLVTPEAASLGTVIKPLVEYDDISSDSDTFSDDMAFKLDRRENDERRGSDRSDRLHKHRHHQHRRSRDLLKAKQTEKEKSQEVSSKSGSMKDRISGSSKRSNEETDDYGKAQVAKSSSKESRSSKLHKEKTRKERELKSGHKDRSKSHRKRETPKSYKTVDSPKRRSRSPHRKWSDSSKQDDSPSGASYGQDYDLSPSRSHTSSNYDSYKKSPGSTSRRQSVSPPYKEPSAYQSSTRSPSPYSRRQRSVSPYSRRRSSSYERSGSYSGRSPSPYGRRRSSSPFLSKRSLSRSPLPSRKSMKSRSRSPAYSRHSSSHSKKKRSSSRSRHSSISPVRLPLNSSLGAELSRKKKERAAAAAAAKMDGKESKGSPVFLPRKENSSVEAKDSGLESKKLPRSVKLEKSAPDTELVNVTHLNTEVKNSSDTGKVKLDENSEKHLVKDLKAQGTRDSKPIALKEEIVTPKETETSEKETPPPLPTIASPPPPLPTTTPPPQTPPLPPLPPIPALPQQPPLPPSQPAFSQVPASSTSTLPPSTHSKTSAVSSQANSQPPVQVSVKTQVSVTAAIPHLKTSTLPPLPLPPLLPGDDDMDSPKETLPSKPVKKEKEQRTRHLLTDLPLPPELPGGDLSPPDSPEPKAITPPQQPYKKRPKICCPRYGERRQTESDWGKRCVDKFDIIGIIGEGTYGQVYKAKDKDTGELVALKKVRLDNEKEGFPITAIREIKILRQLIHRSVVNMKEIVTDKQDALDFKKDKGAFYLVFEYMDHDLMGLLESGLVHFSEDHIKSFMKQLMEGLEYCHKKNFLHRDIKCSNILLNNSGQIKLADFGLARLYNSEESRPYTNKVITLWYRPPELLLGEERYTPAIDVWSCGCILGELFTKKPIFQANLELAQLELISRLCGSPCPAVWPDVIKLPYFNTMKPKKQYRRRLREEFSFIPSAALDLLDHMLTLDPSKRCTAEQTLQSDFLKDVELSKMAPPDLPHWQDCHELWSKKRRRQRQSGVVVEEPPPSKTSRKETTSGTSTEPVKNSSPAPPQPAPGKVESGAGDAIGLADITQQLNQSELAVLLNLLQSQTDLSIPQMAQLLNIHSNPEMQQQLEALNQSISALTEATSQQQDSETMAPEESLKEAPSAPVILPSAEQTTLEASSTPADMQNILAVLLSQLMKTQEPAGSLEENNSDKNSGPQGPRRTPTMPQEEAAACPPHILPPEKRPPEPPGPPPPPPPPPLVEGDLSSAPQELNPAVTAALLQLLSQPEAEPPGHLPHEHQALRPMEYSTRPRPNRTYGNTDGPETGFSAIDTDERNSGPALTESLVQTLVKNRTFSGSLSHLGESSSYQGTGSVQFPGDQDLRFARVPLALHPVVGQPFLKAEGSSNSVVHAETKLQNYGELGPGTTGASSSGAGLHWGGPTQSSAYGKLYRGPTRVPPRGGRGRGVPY
T6 sequence (Q16531 whole entry, species assumed): as the sequence (Q16531 whole entry partner) above
Procedure: HEK293 LgBiT cells (Promega) were cultured in DMEM (Gibco 11995), supplemented with 10% Heat-inactivated FBS (Gibco A38400-01) and 1% Penicillin/Streptomycin (Gibco 15140-122) and 200 μg/ml Hygromycin B (Gibco 10-687-010) at 37° C. with 5% CO2 in a humidified tissue culture incubator. Cells were made stable for CCNK fused to a C-terminal HiBiT peptide by lentiviral transduction, followed by selection with 1 μg/ml Puromycin Dihydrochloride (Thermo A1113803). HEK293 LgBiT/CCNK HiBiT cells were seeded at 3000 cells/well in 384-well, tissue culture-treated white plates (Perkin Elmer 6007680) in 25 μL media lacking selection for 18-24 hours. Plates were spun at 300 g for 30 seconds and stored in the incubator overnight. After 24 hours, compounds were titrated in DMSO and added to media supplemented with Endurazine Substrate (Promega N2570). A 25 ul aliquot of 2× compound/endurazine in media were then added to the 384-well microplate with seeded cells. (Endurazine was used at a final concentration of 0.5×). The plate was spun at 300 g for 30 seconds and stored in the incubator. After 6 hours the plate was read on Envision MultiMode Plate Reader 2105 (Perkin Elmer) to measure luminescence signal. Data were plotted in Prism (Graphpad) and the concentration of compound at which 50% CCNK degradation occurs (DC50) was calculated.

[5] = target: T7, EGFR T790M/L858R kinase domain (Homo sapiens, UniProt P00533, L858R/T790M); assay: EGFR cellular target engagement assay (HEK293 cells stable for EGFR T790M, L858R); type: cell-based; conditions: 6 hours, read-out: TE50 (the source's name)
T7 construct: EGFR (amino acids 696-1022, T790M, L858R); expressed in transfected cells; host or cells: HEK293, lentiviral transduction, puromycin selection
Procedure: HEK293 cells were cultured in DMEM (Gibco 11995), supplemented with 10% Heat-inactivated FBS (Gibco A38400-01) and 1% Penicillin/Streptomycin (Gibco 15140-122) at 37° C. with 5% CO2 in a humidified tissue culture incubator. Cells were made stable for EGFR (amino acids 696-1022, T790M, L858R) by lentiviral transduction, followed by selection with 1 μg/ml Puromycin Dihydrochloride (Thermo A1113803). Cells were seeded at 30,000 cells/ml in 0.1 ml of complete media in Poly-D-lysine-treated 96-well plates and incubated overnight. Cells were treated with increasing concentrations of compound and let incubate at 37C and 5% CO2 for 6 hours, after which media was aspirated, washed with 1×PBS and cells were lysed in RIPA Lysis and Extraction Buffer (Thermo 89901) supplemented with 5 mM MgCl2, Protease and Phosphatase inhibitor cocktail (Thermo 1861281), and Universal Nuclease (Thermo 88700). Plates with RIPA were shaken at 4° C. at 600 rpm for 15 min. After shaking samples, they were collected and spun down at 21,000 g for 15 min at 4° C. Following centrifugation, […] of lysate was added to Laemmli Sample Buffer (Bio-Rad 1610747) plus 10% beta-mercaptoethanol, boiled for 15 minutes at 65° C. and loaded onto 4-20% Mini-PROTEAN TGX™ Precast Protein Gels (Bio-Rad). Protein was transferred to a nitrocellulose membrane (Thermo LC2000) using the iBlot 2 Dry Blotting System (Thermo). After transfer, membranes were washed in 1× TBST (Bioland Scientific LLC TBST0103) 3× for 5 min. Following the wash, blocking buffer (Rockland MB-070) was added for 1 hour at room temperature. Primary antibodies against EGFR (Cell Signaling Technology 3197) and actin (Cell Signaling Technology 3700S) were added overnight at 4° C. Membranes were then washed again 3× for 5 min in 1× TBST. Secondary antibodies (LI-COR 926-68072 and 926-68073) were added and shaken for 1 hr at room temperature. Membranes were then washed 3× for 5 min in 1×TBST and developed. Membranes were placed on an Odyssey imager (LI-COR).

| Kd [1] | DC50 (GSPT1) | GI50 (HeLa cells (ATCC CCL-2)) | SMILES | GI50 [2] | other results |
| --- | --- | --- | --- | --- | --- |
|  |  |  | C=C(Cn1cc(CNc2cc(N3CCCC[C@H]3CCO)nc3c(CC)cnn23)ccc1=O)C(=O)N[C@@H]1CN(c2nc(Nc3cn(C)nc3OC)c3ncn(C)c3n2)C[C@H]1F [Compound A1-8] |  | Concentration of Effector Protein Ligand (EGFR T790M L858R; Buffer + Protein (EGFR T790M L858R), Time 0 h): 0.889 µM; Concentration of Effector Protein Ligand (EGFR T790M L858R; Buffer + Protein (EGFR T790M L858R), Time 2 h): 5.18 µM; Concentration of Effector Protein Ligand (EGFR T790M L858R; Buffer + Protein (EGFR T790M L858R), Time 8 h): 6.91 µM; Concentration of Effector Protein Ligand (EGFR T790M L858R; Buffer + Protein (EGFR T790M L858R), Time 24 h): 9.11 µM; Concentration of Effector Protein Ligand (EGFR T790M L858R; Buffer, Time 0 h): 0.894 µM; Concentration of Effector Protein Ligand (EGFR T790M L858R; Buffer, Time 2 h): 4.06 µM; Concentration of Effector Protein Ligand (EGFR T790M L858R; Buffer, Time 8 h): 7.24 µM; Concentration of Effector Protein Ligand (EGFR T790M L858R; Buffer, Time 24 h): 8.26 µM |
| 500 to 2500 nM | > 2500 nM |  | C=C(CN1C(=O)CCC(N2Cc3cc(CNC(=O)Nc4ccc(C)c(Cl)c4)ccc3C2=O)C1=O)C(=O)N1CCC[C@@H](n2nc(-c3ccc(Oc4ccccc4)cc3)c3c(N)ncnc32)C1 (stereo partly drawn) [Compound I-3, 1-[[2-[1-[2-[(3R)-3-[4-amino-3-(4-phenoxyphenyl)pyrazolo[3,4-d]pyrimidin-1-yl]piperidine-1-carbonyl]allyl]-2,6-dioxo-3-piperidyl]-1-oxo-isoindolin-5-yl]methyl]-3-(3-chloro-4-methyl-phenyl)urea] |  |  |
| 500 to 2500 nM | > 2500 nM | > 10000 nM | C=C(CN(Cc1ccc2c(c1)CN(C1CCC(=O)NC1=O)C2=O)C(=O)Nc1ccc(C)c(Cl)c1)C(=O)N1CCC[C@@H](n2nc(-c3ccc(Oc4ccccc4)cc3)c3c(N)ncnc32)C1 (stereo partly drawn) [Compound I-31] | > 10000 nM |  |
| 500 to 2500 nM | > 2500 nM | > 10000 nM | C=C(CN(C(=O)NCc1ccc2c(c1)CN(C1CCC(=O)NC1=O)C2=O)c1ccc(C(F)(F)F)c(Cl)c1)C(=O)N1CCC[C@@H](n2nc(-c3ccc(Oc4ccccc4)cc3)c3c(N)ncnc32)C1 (stereo partly drawn) [Compound I-38] | > 10000 nM |  |
| 50 to 500 nM |  | 500 to 1500 nM | C=C(COc1ccc(Cl)cc1NC(=O)NCc1ccc2c(c1)CN(C1CCC(=O)NC1=O)C2=O)C(=O)N1CCC[C@@H](n2nc(-c3ccc(Oc4ccccc4)cc3)c3c(N)ncnc32)C1 (stereo partly drawn) [I-32] | 500 to 1500 nM |  |
|  |  | < 500 nM | C=C(COC(=O)N1CCN(c2nc(NCc3nc4cc(C)ccc4[nH]3)n3ncc(Br)c3n2)CC1)C(=O)N[C@@H]1CN(c2nc(Nc3cn(C)nc3OC)c3ncn(C)c3n2)C[C@H]1F [II-184] | < 500 nM | Kd [3]: 50 to 500 nM; Kd [4]: 50 to 500 nM; DC50 (CCNK): < 250 nM; EC50 [5]: 250 to 5000 nM |
